In patent publication US20230123497A1, “NOVEL ANTIBACTERIAL HYDROGELS” (NewSouth Innovations Pty Limited, priority 2020, published 2023):

Experiments:
[1] = Hydrogel formation, vial inversion test (critical gel concentration); format: physicochemical; design: key: OG: opaque gel; P: precipitate; conditions: solvent switch
Text: The simplest method to determine whether a suitable hydrogel has formed is to use the vial inversion test. Through visual inspection, a material can be categorised as a solution, viscous solution, partial gel, or solid-like gel. A stable hydrogel needs to be able to hold its weight and/or maintain its shape during this assessment.
The critical gel concentration (CGC) is defined as the minimum mass of a short peptide required to provide a self-supporting hydrogel per unit volume in the vial inversion test (measured as % w/v).
Pre-weighed samples of short peptide 4 were prepared in aluminium-covered glass vials and Milli-Q water and 2 equivalents of NaOH (1.0 M) were added to make up concentrations of 1% w/v. The resulting suspensions were vortexed for 5 minutes to provide clear yellow solutions with pH 11.
To create a high ionic strength environment, 1 equivalent of NaCl was added and the vial was left to stand without disturbance for 3 hours at room temperature. Meanwhile, as an attempt to form a hydrogel by lowering the pH, 2 equivalents of GdL were added to a high pH solution of 4 followed by gentle mixing. These vials were inverted and allowed to stand overnight to confirm the hydrogel formation.
The formation of hydrogel 4 via the solvent switch method was conducted by dissolving short peptide 4, in an aluminium covered glass vial, with either 50% methanol, ethanol, or dimethyl sulfoxide (DMSO). Respective amounts of Mili-Q water were added to make up concentrations of 1% w/v.
In addition, gelation time was defined as the time (hours) required for 1% w/v of short peptide 4 to form a hydrogel which can be turned upside down without collapsing.
Pre-weighed samples of short peptides 10a-17a, 18, and 19 were prepared in glass vials with 10 mm internal diameter, and Milli-Q water was added to make up concentrations of 1% w/v. The resulting suspensions of short peptides 13, 18, and 19 (as ammonium or guanidinium salts) were slowly warmed until all solid had completely dissolved. GdL (1.5 to 2.0 equivalents) was added to the suspension of short peptides 10a-17a, before heat was applied. To create a high ionic strength environment, 1-5 equivalents of NaCl was added to the viscous solution of 10a-17a to make the total volume up to 1 mL, followed by gentle mixing, and the vial was left to stand without disturbance for 3 hours at room temperature. Subsequently, these vials were inverted and allowed to stand overnight to confirm hydrogel formation.

[2] = Solubility in water; format: physicochemical; conditions: even with vigorous heating
Procedure: Nitrobenzene-appended short peptide 4 was not soluble in water even with vigorous heating. Therefore, NaOH (2 equivalents) was added to deprotonate the carboxylic acid group at the C-terminus of short peptide 4, generating a sodium carboxylate salt with increased solubility in water. The yellow suspension of short peptide 4 was sonicated for 5 minutes after the addition of alkali, resulting is dissolution and formation of a yellow solution.

[3] = tested on: E. coli K12; test: Antibacterial activity of NO released from hydrogel 4 under blue light, viable count method; format: cell-based, Escherichia coli
Procedure: The antibacterial activity of NO released from hydrogel 4 was investigated in vitro. Initially, a single colony of E. coli K12 was grown in LB broth medium (Sigma-Aldrich) at 37° C. overnight. The resulting bacteria were harvested via centrifugation to obtain a bacteria pallet which was re-suspended in the same volume of LB, twice. The optical density value of the resulting culture was adjusted to 0.1 at 600 nm (10^8 cfu·mL^−1). This bacteria solution was then further adjusted to 3×10^4 cfu·mL^−1.
Hydrogel 4 was prepared at 1% w/v in two different vials. The first vial (vial a) contained hydrogel 4 which will be exposed to blue light. Meanwhile vial b contained hydrogel 4, which will be covered using aluminium foil during the entire experiment. Furthermore, on top of these pre-formed hydrogels, 1 mL of bacteria solution was carefully cast. A vial c that contained only 1 mL of bacteria solution was also prepared. Subsequently, vial a and vial c were irradiated using blue light (440-450 nm). As a negative control, a bacteria solution in the absence of hydrogel and blue light was used in this experiment. After 2 hours, 100 μL of bacteria solution in each vial was taken and subjected to serial dilution using PBS. 20 μL of each dilution were carefully transferred into nutrient agar plates and incubated for another 18 hours. The following day, bacterial growth inhibition were quantified using viable count method. The experiment was performed twice in triplicate and multiple sample comparison was performed using one-way ANOVA at p<0.05.
Bacterial culture (1 mL containing 3×10^4 CFU) was carefully placed on top of hydrogel 4, followed by irradiation of blue light for 1 hour. The viability of bacteria after being exposed to blue light was calculated via the viable count method as illustrated in FIG. 15.
Hydrogel 4, by itself, might exert activity against E. coli. Therefore, the antibacterial activity of hydrogel 4 in the absence of blue light was also determined in a control experiment. […]

[4] = tested on: S. aureus 38; test: Microdilution MBC of released fibers versus free compound; format: cell-based, Staphylococcus aureus
Procedure: To confirm their antibacterial efficacy, the released fibers from day 1 and day 9 were subjected to a standard microdilution protocol.
To further investigate their antibacterial activity, the released fibers from hydrogel 11 were tested against S. aureus 38. The solutions sampled from day 1 and day 9 were adjusted to obtained final concentrations of […]. Then, 100 μL of these solutions were transferred to a 96 well plate. […] 100 μL of each of these peptide solutions was also transferred to a 96 well plate.
Subsequently, 100 μL of a bacteria solution, adjusted to 10^6 CFUs/mL was added to each well. Two controls were used: one containing 100 μL of LB and 100 μL of PBS, and the other containing 100 μL of bacteria solution and 100 μL of PBS. The plate was then incubated at 37° C. for 24 hours. The following day, 20 μL solution from each well was subjected to a serial dilution then transferred onto agar plates followed by incubation at 37° C. for another 24 hours. MBC value was determined as the lowest concentration that inhibited S. aureus growth on the agar plate.

| Remarks (gel state) ([1]; DMSO 5 % v/v) | Remarks (gel state) ([1]; DMSO 50 % v/v) | Remarks (gel state) ([1]; EtOH 5 % v/v) | Remarks (gel state) ([1]; EtOH 50 % v/v) | Remarks (gel state) ([1]; MeOH 5 % v/v) | Remarks (gel state) ([1]; MeOH 50 % v/v) | solubility in water [2] | SMILES | Log reduction ([3]; hydrogel 4 1% w/v, blue light irradiation 1 hour) [Log] | bacterial number after treatment ([3]; hydrogel 4 1% w/v, blue light irradiation 1 hour, from 3×10^4 CFUs) [CFUs] | bacterial reduction without light ([3]; hydrogel 4 without light irradiation) | MBC ([4]; Staphylococcus aureus, 38, fibers in solution released from hydrogel 11, S. aureus, 24 hours, read-out: minimum bactericidal concentration (MBC)) [µM] | bacteria reduction ([4]; free compound (not hydrogel-formed) at 62 μM, S. aureus) [Log10 CFU/mL] |
| --- | --- | --- | --- | --- | --- | --- | --- | --- | --- | --- | --- | --- |
| P | OG | P | OG | P | OG | not soluble | O=C(Nc1ccccc1C(=O)N[C@@H](Cc1ccccc1)C(=O)N[C@@H](Cc1ccccc1)C(=O)O)c1ccc([N+](=O)[O-])c(C(F)(F)F)c1 [Compound 4, (2-(4-Nitro-3-(trifluoromethyl)benzamido)benzoyl)-L-phenylalanyl-L-phenylalanine] | ~3 | 34 | no bacterial reduction was observed | – | – |
| – | – | – | – | – | – | – | NCCCNC(=O)[C@H](Cc1ccccc1)NC(=O)c1ccccc1NC(=O)c1ccc2ccccc2c1 [Compound 11] | – | – | – | 62 | < 1 |
